Source: patent US20230151025A1, “SUBSTITUTED THIAZOLOPYRIDINES, SALTS THEREOF AND THEIR USE AS HERBICIDALLY ACTIVE SUBSTANCES” (Bayer Aktiengesellschaft, priority 2020, published 2023)

system: Abutilon theophrasti (ABUTH); assay: Herbicidal pre-emergence action (A), 1280 g/ha; format: in vivo; conditions: visual grading after ca. 3 weeks vs untreated controls, 100% = plants have died off, 0% = as control plants
Summary of the method: (§1)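 Seeds were sown in sandy loam pots (one mono- and one dicot weed per pot) and covered with soil; WP or EC formulations were applied to the soil surface as aqueous suspension/emulsion with 0.5% additive at 600 l water/ha. Damage was scored visually after ca. 3 weeks versus untreated controls (0% = control, 100% = dead).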

| SMILES | ABUTH, herbicidal effect in percent (%) |
| --- | --- |
| Cc1cc2scnc2nc1-c1ccccc1Cl [Example I-045] | 90 |
| CCc1cc2scnc2nc1-c1ccccc1 [Example I-051] | 90 |

system: Alopecurus myosuroides (ALOMY); assay: Herbicidal pre-emergence action (A), 1280 g/ha; format: in vivo; conditions: visual grading after ca. 3 weeks vs untreated controls, 100% = plants have died off, 0% = as control plants
Summary of the method: as §1

| SMILES | ALOMY, herbicidal effect in percent (%) |
| --- | --- |
| Cc1cc2scnc2nc1-c1ccccc1Cl [Example I-045] | 100 |
| CCc1cc2scnc2nc1-c1ccccc1 [Example I-051] | 100 |

system: Amaranthus retroflexus (AMARE); assay: Herbicidal pre-emergence action (A), 1280 g/ha; format: in vivo; conditions: visual grading after ca. 3 weeks vs untreated controls
Summary of the method: as §1

| SMILES | herbicidal effect AMARE [%] |
| --- | --- |
| Cc1cc2scnc2nc1-c1ccccc1Cl [Example I-045] | 100 |

system: Digitaria sanguinalis (DIGSA); assay: Herbicidal pre-emergence action (A), 1280 g/ha; format: in vivo; conditions: visual grading after ca. 3 weeks vs untreated controls, 100% = plants have died off, 0% = as control plants
Summary of the method: as §1

| SMILES | DIGSA, herbicidal effect in percent (%) |
| --- | --- |
| Cc1cc2scnc2nc1-c1ccccc1Cl [Example I-045] | 100 |
| CCc1cc2scnc2nc1-c1ccccc1 [Example I-051] | 100 |

system: Echinochloa crus-galli (ECHCG); assay: Herbicidal pre-emergence action (A), 1280 g/ha; format: in vivo; conditions: visual grading after ca. 3 weeks vs untreated controls, 100% = plants have died off, 0% = as control plants
Summary of the method: as §1

| SMILES | ECHCG, herbicidal effect in percent (%) |
| --- | --- |
| Cc1cc2scnc2nc1-c1ccccc1Cl [Example I-045] | 100 |
| CCc1cc2scnc2nc1-c1ccccc1 [Example I-051] | 100 |

system: Kochia scoparia (KCHSC; Bassia scoparia); assay: Herbicidal pre-emergence action (A), 1280 g/ha; format: in vivo; conditions: visual grading after ca. 3 weeks vs untreated controls
Summary of the method: as §1

| SMILES | herbicidal effect KCHSC [%] |
| --- | --- |
| Cc1cc2scnc2nc1-c1ccccc1Cl [Example I-045] | 100 |
| CCc1cc2scnc2nc1-c1ccccc1 [Example I-051] | 90 |

system: Lolium rigidum (LOLRI); assay: Herbicidal pre-emergence action (A), 1280 g/ha; format: in vivo; conditions: visual grading after ca. 3 weeks vs untreated controls, 100% = plants have died off, 0% = as control plants
Summary of the method: as §1

| SMILES | LOLRI, herbicidal effect in percent (%) |
| --- | --- |
| Cc1cc2scnc2nc1-c1ccccc1Cl [Example I-045] | 100 |
| CCc1cc2scnc2nc1-c1ccccc1 [Example I-051] | 100 |

system: Matricaria inodora (MATIN); assay: Herbicidal pre-emergence action (A), 1280 g/ha; format: in vivo; conditions: visual grading after ca. 3 weeks vs untreated controls
Summary of the method: as §1

| SMILES | herbicidal effect MATIN [%] |
| --- | --- |
| Cc1cc2scnc2nc1-c1ccccc1Cl [Example I-045] | 100 |
| CCc1cc2scnc2nc1-c1ccccc1 [Example I-051] | 90 |

system: Poa annua (POAAN); assay: Herbicidal pre-emergence action (A), 1280 g/ha; format: in vivo; conditions: visual grading after ca. 3 weeks vs untreated controls, 100% = plants have died off, 0% = as control plants
Summary of the method: as §1

| SMILES | POAAN, herbicidal effect in percent (%) |
| --- | --- |
| Cc1cc2scnc2nc1-c1ccccc1Cl [Example I-045] | 100 |
| CCc1cc2scnc2nc1-c1ccccc1 [Example I-051] | 100 |

system: Setaria viridis (SETVI); assay: Herbicidal pre-emergence action (A), 1280 g/ha; format: in vivo; conditions: visual grading after ca. 3 weeks vs untreated controls
Summary of the method: as §1

| SMILES | herbicidal effect SETVI [%] |
| --- | --- |
| Cc1cc2scnc2nc1-c1ccccc1Cl [Example I-045] | 100 |
| CCc1cc2scnc2nc1-c1ccccc1 [Example I-051] | 100 |

system: Stellaria media (STEME); assay: Herbicidal pre-emergence action (A), 1280 g/ha; format: in vivo; conditions: visual grading after ca. 3 weeks vs untreated controls
Summary of the method: as §1

| SMILES | herbicidal effect STEME [%] |
| --- | --- |
| Cc1cc2scnc2nc1-c1ccccc1Cl [Example I-045] | 100 |
| CCc1cc2scnc2nc1-c1ccccc1 [Example I-051] | 90 |

system: Veronica persica (VERPE); assay: Herbicidal pre-emergence action (A), 1280 g/ha; format: in vivo; conditions: visual grading after ca. 3 weeks vs untreated controls
Summary of the method: as §1

| SMILES | herbicidal effect VERPE [%] |
| --- | --- |
| Cc1cc2scnc2nc1-c1ccccc1Cl [Example I-045] | 100 |
| CCc1cc2scnc2nc1-c1ccccc1 [Example I-051] | 90 |

system: Amaranthus retroflexus (AMARE); assay: Herbicidal post-emergence action (B), 1280 g/ha; format: in vivo; conditions: rated visually after about 3 weeks vs untreated controls
Summary of the method: (§2)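 Post-emergence spray, one-leaf stage; WP/EC formulation, aqueous, 0.5% additive, 600 L/ha water. Sandy loam, greenhouse, doubly sown pots. Visual % rating vs untreated control at ~3 weeks (100% = dead).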

| SMILES | herbicidal activity AMARE [%] |
| --- | --- |
| Cc1cc2scnc2nc1-c1ccccc1Cl [Example I-045] | 90 |
| CCc1cc2scnc2nc1-c1ccccc1 [Example I-051] | 100 |

system: Digitaria sanguinalis (DIGSA); assay: Herbicidal post-emergence action (B), 1280 g/ha; format: in vivo; conditions: rated visually after about 3 weeks vs untreated controls
Summary of the method: as §2

| SMILES | herbicidal activity DIGSA [%] |
| --- | --- |
| CCc1cc2scnc2nc1-c1ccccc1 [Example I-051] | 100 |

system: Echinochloa crus-galli (ECHCG); assay: Herbicidal post-emergence action (B), 1280 g/ha; format: in vivo; conditions: rated visually after about 3 weeks vs untreated controls
Summary of the method: as §2

| SMILES | herbicidal activity ECHCG [%] |
| --- | --- |
| Cc1cc2scnc2nc1-c1ccccc1Cl [Example I-045] | 100 |
| CCc1cc2scnc2nc1-c1ccccc1 [Example I-051] | 100 |

system: Lolium rigidum (LOLRI); assay: Herbicidal post-emergence action (B), 1280 g/ha; format: in vivo; conditions: one-leaf stage, rated after about 3 weeks vs untreated controls, 100% activity = the plants have died, 0% = like control plants
Summary of the method: as §2

| SMILES | LOLRI, activity rated visually (%) |
| --- | --- |
| Cc1cc2scnc2nc1-c1ccccc1Cl [Example I-045] | 90 |
| CCc1cc2scnc2nc1-c1ccccc1 [Example I-051] | 100 |

system: Stellaria media (STEME); assay: Herbicidal post-emergence action (B), 1280 g/ha; format: in vivo; conditions: not given
Summary of the method: as §2

| SMILES | herbicidal effect STEME [%] |
| --- | --- |
| Cc1cc2scnc2nc1-c1ccccc1Cl [Example I-045] | 100 |
| CCc1cc2scnc2nc1-c1ccccc1 [Example I-051] | 100 |

system: Veronica persica (VERPE); assay: Herbicidal post-emergence action (B), 1280 g/ha; format: in vivo; conditions: not given
Summary of the method: as §2

| SMILES | herbicidal effect VERPE [%] |
| --- | --- |
| Cc1cc2scnc2nc1-c1ccccc1Cl [Example I-045] | 90 |
| CCc1cc2scnc2nc1-c1ccccc1 [Example I-051] | 100 |

system: Alopecurus myosuroides (ALOMY); assay: Herbicidal pre-emergence action (C), 320 g/ha; format: in vivo; conditions: ca. 3 weeks
Summary of the method: (§3)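 Seeds sown in sandy loam and covered with soil; compounds formulated as WP or EC were sprayed onto the covering soil as aqueous suspension/emulsion with 0.5% additive at 600 l water/ha. Pots kept in greenhouse; damage graded visually after ca. 3 weeks versus untreated controls (0% = as control, 100% = plants dead).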

| SMILES | herbicidal effect ALOMY [%] |
| --- | --- |
| Cc1cc2scnc2nc1-c1ccccc1Cl [Example I-045] | 100 |
| CCc1cc2scnc2nc1-c1ccccc1 [Example I-051] | 100 |

system: Amaranthus retroflexus (AMARE); assay: Herbicidal pre-emergence action (C), 320 g/ha; format: in vivo; conditions: ca. 3 weeks
Summary of the method: as §3

| SMILES | herbicidal effect AMARE [%] |
| --- | --- |
| Cc1cc2scnc2nc1-c1ccccc1Cl [Example I-045] | 90 |
| CCc1cc2scnc2nc1-c1ccccc1 [Example I-051] | 90 |

system: Echinochloa crus-galli (ECHCG); assay: Herbicidal pre-emergence action (C), 320 g/ha; format: in vivo; conditions: ca. 3 weeks
Summary of the method: as §3

| SMILES | herbicidal effect ECHCG [%] |
| --- | --- |
| Cc1cc2scnc2nc1-c1ccccc1Cl [Example I-045] | 100 |
| CCc1cc2scnc2nc1-c1ccccc1 [Example I-051] | 100 |

system: Lolium rigidum (LOLRI); assay: Herbicidal pre-emergence action (C), 320 g/ha; format: in vivo; conditions: ca. 3 weeks
Summary of the method: as §3

| SMILES | herbicidal effect LOLRI [%] |
| --- | --- |
| Cc1cc2scnc2nc1-c1ccccc1Cl [Example I-045] | 100 |
| CCc1cc2scnc2nc1-c1ccccc1 [Example I-051] | 100 |

system: Setaria viridis (SETVI); assay: Herbicidal pre-emergence action (C), 320 g/ha; format: in vivo; conditions: ca. 3 weeks
Summary of the method: as §3

| SMILES | herbicidal effect SETVI [%] |
| --- | --- |
| Cc1cc2scnc2nc1-c1ccccc1Cl [Example I-045] | 100 |
| CCc1cc2scnc2nc1-c1ccccc1 [Example I-051] | 100 |

system: Veronica persica (VERPE); assay: Herbicidal pre-emergence action (C), 320 g/ha; format: in vivo; conditions: ca. 3 weeks
Summary of the method: as §3

| SMILES | herbicidal effect VERPE [%] |
| --- | --- |
| Cc1cc2scnc2nc1-c1ccccc1Cl [Example I-045] | 90 |
| CCc1cc2scnc2nc1-c1ccccc1 [Example I-051] | 90 |

system: Digitaria sanguinalis (DIGSA); assay: Herbicidal pre-emergence action (C), 320 g/ha; format: in vivo; conditions: ca. 3 weeks
Summary of the method: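 Weed and crop seeds sown in sandy loam; WP or EC formulations applied pre-emergence to the soil surface as aqueous suspension/emulsion with 0.5% additive at 600 l water/ha. Greenhouse-grown under optimum conditions; damage visually scored after ca. 3 weeks versus untreated controls (0% = as control, 100% = plants dead).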

| SMILES | herbicidal effect DIGSA [%] |
| --- | --- |
| Cc1cc2scnc2nc1-c1ccccc1Cl [Example I-045] | 100 |
| CCc1cc2scnc2nc1-c1ccccc1 [Example I-051] | 100 |
